Converted amounts (≈) assume the structure as drawn.
What was measured:
Clostridium perfringens = assay: microbe, parasite or virus in culture; assay type: cell-based; details: read-out: MIC Clo per
Mycoplasma bovis = assay: MIC determination by microdilution in liquid medium, Myc bov; assay type: cell-based; details: Mycoplasmopsis bovis
[1] = system: Bordetella bronchiseptica; assay: MIC determination by microdilution in liquid medium, Bor bron; assay type: cell-based
E. coli ATCC 25922 = assay: MIC determination by microdilution in liquid medium, E. coli ATCC 25922; assay type: cell-based; details: Escherichia coli, ATCC25922
[2] = system: Pseudomonas aeruginosa (r = resistant); assay: MIC determination by microdilution in liquid medium, Pse aer r; assay type: cell-based; details: read-out: MIC Pse aer r
[3] = system: Mannheimia haemolytica (s = susceptible); assay: MIC determination by microdilution in liquid medium, Man hae s; assay type: cell-based; details: susceptible strain
M. bovirhinis = assay: MIC determination by microdilution in liquid medium, M. bovirhinis; assay type: cell-based; details: Mycoplasma
[4] = system: Pseudomonas aeruginosa (s = susceptible); assay: MIC determination by microdilution in liquid medium, Pse aer s; assay type: cell-based; details: susceptible strain
[5] = system: Mannheimia haemolytica (r = resistant); assay: MIC determination by microdilution in liquid medium, Man hae r; assay type: cell-based; details: resistant strain
Streptococcus uberis = assay: MIC determination by microdilution in liquid medium, Str ube; assay type: cell-based
[6] = system: Staphylococcus aureus (s = susceptible); assay: MIC determination by microdilution in liquid medium, Sta aur s; assay type: cell-based; details: susceptible strain
Escherichia coli = assay: MIC determination by microdilution in liquid medium, E coli; assay type: cell-based
[7] = system: Staphylococcus aureus (r = resistant); assay: MIC determination by microdilution in liquid medium, Sta aur r; assay type: cell-based; details: read-out: MIC Sta aur r
E. faecalis ATCC 29212 = assay: MIC determination by microdilution in liquid medium, E. faecalis ATCC 29212; assay type: cell-based; details: Enterococcus faecalis, ATCC29212, read-out: MIC E. fae-calis ATCC 29212

Compound | melting point | MIC (Clostridium perfringens) [µg/mL] | MIC (Mycoplasma bovis) [µg/mL] | MIC [1] [µg/mL] | MIC (E. coli ATCC 25922) [µg/mL] | MIC [2] [µg/mL] | MIC [3] [µg/mL] | MIC (M. bovirhinis) [µg/mL] | MIC [4] [µg/mL] | MIC [5] [µg/mL] | MIC (Streptococcus uberis) [µg/mL] | MIC [6] [µg/mL] | MIC (Escherichia coli) [µg/mL] | MIC [7] [µg/mL] | MIC (E. faecalis ATCC 29212) [µg/mL]
CN1COc2c(N3CC[C@H](NC(=O)C(F)(F)F)C3)c(F)cc3c(=O)c(C(=O)O)cn1c23 (hydrate or solvate) [Example 28, 8-Fluoro-3-methyl-6-oxo-9-[(S)-3-(2,2,2-trifluoro-acetylamino)-pyrrolidin-1-yl]-2,3-dihydro-6H-1-oxa-3,3a-diaza-phenalene-5-carboxylic acid] | 273 to 275 °C | – | – | – | – | – | – | – | – | – | – | – | – | – | –
CN1COc2c(N3CC[C@@H](NC(=O)C(F)(F)F)C3)c(F)cc3c(=O)c(C(=O)O)cn1c23 (hydrate or solvate) [Example 29, 8-Fluoro-3-methyl-6-oxo-9-[(R)-3-(2,2,2-trifluoro-acetylamino)-pyrrolidin-1-yl]-2,3-dihydro-6H-1-oxa-3,3a-diaza-phenalene-5-carboxylic acid] | 273 to 275 °C | – | – | – | – | – | – | – | – | – | – | – | – | – | –
CN1COc2c(N3C[C@@H](N)C(C)(C)C3)c(F)cc3c(=O)c(C(=O)O)cn1c23 (hydrate or solvate) [Example 34, 9-((S)-4-Amino-3,3-dimethyl-pyrrolidin-1-yl)-8-fluoro-3-methyl-6-oxo-2,3-dihydro-6H-1-oxa-3,3a-diaza-phenalene-5-carboxylic acid] | 230 °C (dec.) | – | – | – | – | – | – | – | – | – | – | – | – | – | –
CN1COc2c(N3C[C@H](N)C(C)(C)C3)c(F)cc3c(=O)c(C(=O)O)cn1c23 (hydrate or solvate) [Example 35, 9-((R)-4-Amino-3,3-dimethyl-pyrrolidin-1-yl)-8-fluoro-3-methyl-6-oxo-2,3-dihydro-6H-1-oxa-3,3a-diaza-phenalene-5-carboxylic acid] | 222 °C (dec.) | – | – | – | – | – | – | – | – | – | – | – | – | – | –
CN1COc2c(N3CCC(C(O)c4nccs4)C3)c(F)cc3c(=O)c(C(=O)O)cn1c23 (stereo not drawn) (hydrate or solvate) [Example 38, 8-Fluoro-9-[3-(hydroxy-thiazol-2-yl-methyl)-pyrrolidin-1-yl]-3-methyl-6-oxo-2,3-dihydro-6H-1-oxa-3,3a-diaza-phenalene-5-carboxylic acid] | 215 to 217 °C | – | – | – | – | – | – | – | – | – | – | – | – | – | –
CN1COc2c(N3CCC(C(N)c4nccs4)C3)c(F)cc3c(=O)c(C(=O)O)cn1c23 (stereo not drawn) (hydrate or solvate) [Example 39, 9-[3-(Amino-thiazol-2-yl-methyl)-pyrrolidin-1-yl]-8-fluoro-3-methyl-6-oxo-2,3-dihydro-6H-1-oxa-3,3a-diaza-phenalene-5-carboxylic acid] | 233 to 235 °C | – | – | – | – | – | – | – | – | – | – | – | – | – | –
CN1COc2c(N3CC(N)C(C)(C)C3)c(F)cc3c(=O)c(C(=O)O)cn1c23 (racemic) (hydrate or solvate) [Example 33, 9-((R,S)-4-Amino-3,3-dimethyl-pyrrolidin-1-yl)-8-fluoro-3-methyl-6-oxo-2,3-dihydro-6H-1-oxa-3,3a-diaza-phenalene-5-carboxylic acid] | 237 °C (dec.) | – | – | – | – | – | – | – | – | – | – | – | – | – | –
CN1COc2c(N3CC(N)C(C)(C)C3)c(F)cc3c(=O)c(C(=O)O)cn1c23 (racemic) [Example 33, 9-((R,S)-4-Amino-3,3-dimethyl-pyrrolidin-1-yl)-8-fluoro-3-methyl-6-oxo-2,3-dihydro-6H-1-oxa-3,3a-diaza-phenalene-5-carboxylic acid] | – | 0.06 (≈ 0.159 µM) | 0.5 (≈ 1.33 µM) | 0.5 (≈ 1.33 µM) | 0.03 (≈ 0.0797 µM) | 8 (≈ 21.3 µM) | 0.06 (≈ 0.159 µM) | 0.25 (≈ 0.664 µM) | 0.5 (≈ 1.33 µM) | 8 (≈ 21.3 µM) | 0.12 (≈ 0.319 µM) | < 0.03 | 0.06 (≈ 0.159 µM) | 2 (≈ 5.31 µM) | –
CN1COc2c(N3CCC(CNc4cnccn4)C3)c(F)cc3c(=O)c(C(=O)O)cn1c23 (stereo not drawn) [Example 1, 8-fluoro-3-methyl-6-oxo-9-[3-(pyrazin-2-ylaminomethyl)-pyrrolidin-1-yl]-2,3-dihydro-6H-1-oxa-3,3a-diaza-phenalene-5-carboxylic acid] | – | 0.06 (≈ 0.136 µM) | < 0.03 | 0.5 (≈ 1.14 µM) | 0.12 (≈ 0.272 µM) | 16 (≈ 36.3 µM) | 0.06 (≈ 0.136 µM) | 0.06 (≈ 0.136 µM) | 8 (≈ 18.2 µM) | 16 (≈ 36.3 µM) | < 0.03 | < 0.03 | 0.25 (≈ 0.568 µM) | 0.5 (≈ 1.14 µM) | ≤ 0.03
CN1COc2c(N3CCC(Nc4cnccn4)C3)c(F)cc3c(=O)c(C(=O)O)cn1c23 (stereo not drawn) [Example 7] | – | 0.06 (≈ 0.141 µM) | < 0.03 | 0.5 (≈ 1.17 µM) | 0.25 (≈ 0.586 µM) | 16 (≈ 37.5 µM) | 0.06 (≈ 0.141 µM) | 0.06 (≈ 0.141 µM) | 2 (≈ 4.69 µM) | 16 (≈ 37.5 µM) | 0.06 (≈ 0.141 µM) | < 0.03 | 0.25 (≈ 0.586 µM) | 0.5 (≈ 1.17 µM) | ≤ 0.03
CN1COc2c(N3CCC(Nc4ccccn4)C3)c(F)cc3c(=O)c(C(=O)O)cn1c23 (stereo not drawn) [Example 8] | – | < 0.03 | 0.06 (≈ 0.141 µM) | > 1 | 0.12 (≈ 0.282 µM) | > 32 | 0.25 (≈ 0.588 µM) | 0.06 (≈ 0.141 µM) | 8 (≈ 18.8 µM) | 32 (≈ 75.2 µM) | 0.25 (≈ 0.588 µM) | 0.06 (≈ 0.141 µM) | 0.5 (≈ 1.18 µM) | 4 (≈ 9.4 µM) | 0.25 (≈ 0.588 µM)
CN1COc2c(N3CCC(Nc4nncs4)C3)c(F)cc3c(=O)c(C(=O)O)cn1c23 (stereo not drawn) [Example 10, 8-Fluoro-3-methyl-6-oxo-9-[3-([1,3,4]thiadiazol-2-ylamino)-pyrrolidin-1-yl]-2,3-dihydro-6H1-oxa-3,3a-diaza-phenalene-5-carboxylic acid] | – | < 0.03 | 0.12 (≈ 0.277 µM) | 2 (≈ 4.62 µM) | 1 (≈ 2.31 µM) | > 32 | 0.03 (≈ 0.0694 µM) | 2 (≈ 4.62 µM) | 4 (≈ 9.25 µM) | > 32 | < 0.03 | < 0.03 | 0.25 (≈ 0.578 µM) | 4 (≈ 9.25 µM) | 0.25 (≈ 0.578 µM)
CN1COc2c(N3CC[C@H](Nc4nccs4)C3)c(F)cc3c(=O)c(C(=O)O)cn1c23 [Example 18, 8-Fluoro-3-methyl-6-oxo-9-[(S)-3-(thiazol-2-ylamino)-pyrrolidin-1-yl]-2,3dihydro-6H-1-oxa-3,3a-diaza-phenalene-5-carboxylic acid] | – | 0.06 (≈ 0.139 µM) | 0.25 (≈ 0.579 µM) | 0.25 (≈ 0.579 µM) | 0.06 (≈ 0.139 µM) | 32 (≈ 74.2 µM) | 0.12 (≈ 0.278 µM) | ≤ 0.03 | 4 (≈ 9.27 µM) | > 32 | 0.25 (≈ 0.579 µM) | < 0.03 | 0.5 (≈ 1.16 µM) | 4 (≈ 9.27 µM) | ≤ 0.03
CN1COc2c(N3CC[C@@H](Nc4nccs4)C3)c(F)cc3c(=O)c(C(=O)O)cn1c23 [Example 19, 8-Fluoro-3-methyl-6-oxo-9-[(R)-3-(thiazol-2-ylamino)-pyrrolidin-1-yl]-2,3-dihydro-6H-1-oxa-3,3a-diaza-phenalene-5-carboxylic acid] | – | < 0.03 | < 0.03 | 0.12 (≈ 0.278 µM) | 0.25 (≈ 0.579 µM) | 8 (≈ 18.5 µM) | 0.03 (≈ 0.0695 µM) | 0.25 (≈ 0.579 µM) | 2 (≈ 4.64 µM) | 8 (≈ 18.5 µM) | < 0.03 | < 0.03 | 0.06 (≈ 0.139 µM) | 0.25 (≈ 0.579 µM) | 0.06 (≈ 0.139 µM)
CN1COc2c(N3CCC(NC(=O)C(F)(F)F)C3)c(F)cc3c(=O)c(C(=O)O)cn1c23 (stereo not drawn) [Example 27, 8-Fluoro-3-methyl-6-oxo-9-[3-(2,2,2-trifluoro-acetylamino)-pyrrolidin-1-yl]-2,3-dihydro-6H-1-oxa-3,3a-diaza-phenalene-5-carboxylic acid] | – | 0.25 (≈ 0.563 µM) | 1 (≈ 2.25 µM) | 2 (≈ 4.5 µM) | 0.03 (≈ 0.0675 µM) | 2 (≈ 4.5 µM) | 0.008 (≈ 0.018 µM) | 1 (≈ 2.25 µM) | 0.06 (≈ 0.135 µM) | 4 (≈ 9 µM) | 0.25 (≈ 0.563 µM) | 0.12 (≈ 0.27 µM) | 0.03 (≈ 0.0675 µM) | 8 (≈ 18 µM) | 2 (≈ 4.5 µM)
CN1COc2c(N3CC[C@H](NC(=O)C(F)(F)F)C3)c(F)cc3c(=O)c(C(=O)O)cn1c23 [Example 28, 8-Fluoro-3-methyl-6-oxo-9-[(S)-3-(2,2,2-trifluoro-acetylamino)-pyrrolidin-1-yl]-2,3-dihydro-6H-1-oxa-3,3a-diaza-phenalene-5-carboxylic acid] | – | 0.12 (≈ 0.27 µM) | 1 (≈ 2.25 µM) | 1 (≈ 2.25 µM) | 0.03 (≈ 0.0675 µM) | 1 (≈ 2.25 µM) | 0.008 (≈ 0.018 µM) | – | 0.06 (≈ 0.135 µM) | 4 (≈ 9 µM) | 0.25 (≈ 0.563 µM) | 0.12 (≈ 0.27 µM) | 0.03 (≈ 0.0675 µM) | 4 (≈ 9 µM) | 1 to 2 (≈ 2.25 to 4.5 µM)
CN1COc2c(N3C[C@H](N)C(C)(C)C3)c(F)cc3c(=O)c(C(=O)O)cn1c23 [Example 35, 9-((R)-4-Amino-3,3-dimethyl-pyrrolidin-1-yl)-8-fluoro-3-methyl-6-oxo-2,3-dihydro-6H-1-oxa-3,3a-diaza-phenalene-5-carboxylic acid] | – | 0.12 (≈ 0.319 µM) | 0.5 (≈ 1.33 µM) | 1 (≈ 2.66 µM) | 0.03 (≈ 0.0797 µM) | 8 (≈ 21.3 µM) | 0.06 (≈ 0.159 µM) | – | 0.5 (≈ 1.33 µM) | 8 (≈ 21.3 µM) | 0.12 (≈ 0.319 µM) | 0.06 (≈ 0.159 µM) | 0.06 (≈ 0.159 µM) | 2 (≈ 5.31 µM) | 0.25 (≈ 0.664 µM)

Reference: patent US7713965B2, “7-substituted 3-carboxy-oxadiazino-quinolone derivatives, their preparation and their application as anti-bacterials” (Vetoquinol SA, priority 2008, dated 2010)
